Where two headings read alike, the source gives them in different places.
Tests used:
[1] = system: T. cruzi; experiment: Screening of natural product collection against T. cruzi (cell infection assay); assay type: cell-based; conditions: Trypanosoma cruzi; compound concentration of 50 μM
Experimental: (§1) A screening of a natural product collection was performed by using cell assays for infection with Trypanosoma cruzi and Leishmania infantum. The collection includes 320 compounds from the metabolic classes terpenes, alkaloids, peptides and amides that were isolated by plant species or endophytic fungi. For further evaluation in this study, cytochalasins A-D (CAS numbers: CytA: 14110-64-6, CytB: 14930-96-2, CytC: 22144-76-9, CytD: 22144-77-0) were obtained from Sigma-Aldrich (St. Louis, MO, USA). The purity of these compounds was ≥97%. The stock solution of the compounds was prepared in 100% DMSO (dimethyl sulfoxide—Sigma-Aldrich).

[2] = in vitro; assay type: in vitro ADME; conditions: PAMPA; donor pH 6.5, acceptor pH 7.4, 5 h, 37°C; read-out: PAMPA permeability Mean Pe
Experimental: A parallel artificial membrane permeability assay was performed in a 96-well precoated PAMPA plate system (Corning Gentest # 353015). The compound solutions were prepared by diluting the stock solutions (10 mM) in phosphate-buffered saline (PBS) pH 6.5 at a final concentration of 10 μM and then added to the donor portion of the plate (300 μl/well), while PBS pH 7.4 (200 μl/well) was added to the acceptor portion, and the DMSO concentration was lower than 1%. The two portions of the plate were then coupled, and the system was incubated for 5 h at 37°C. Samples of the initial donor solution (T0) were collected and stored at -20°C. At the end of the incubation, samples were collected from the donor and acceptor plates and then added to plates containing quench solution (10% water and 90% methanol:acetonitrile (50:50) + 50 nM tolbutamide). The T0 samples were treated similarly. The final concentrations of compounds in the donor, acceptor and T0 wells were quantified by LC-MS/MS (liquid chromatography-tandem mass spectrometry) Prominence UFLC (Shimadzu Corporation, Kyoto, Japan) and interfaced with an LCMS-8045 triple quadrupole mass spectrometer (Shimadzu Corporation, Kyoto, Japan) with an electrospray ionization source (ESI). The chromatogram for analysis was obtained on a Supelco Ascentis express C18 column (3 cm x 2.1 mm, 5 μM). The mobile phases consisted of water + 0.1% formic acid (A) and acetonitrile + 0.1% formic acid (B). The mobile phase was eluted in binary gradient mode, and the gradient was as follows: 0 min, 95% A; 0.05 mins. 95% A; 0.3 mins: 2% A; 0.7 mins: 2% A; 0.8 mins: 95% A; 1.15 mins 95% A; and 2.0 mins 95% A. The run time was 2 minutes, the sample injection volume was 10 μL, and the flow rate was 0.7 mL/min. The results were used to calculate an effective permeability (Pe) value.

[3] = in vitro; assay type: in vitro ADME; conditions: pH 7.4, 0.5 μM compound, 0.25 mg/mL microsomes
Experimental: The metabolic stability of the cytochalasins was evaluated in human pooled liver human microsomes (20 mg/ml, GIBCO) and pooled liver CD1 mouse microsomes (20 mg/ml, GIBCO). Test cytochalasins were prepared at a concentration of 0.5 μM and incubated with 0.25 mg/mL liver microsomes at pH 7.4), and the DMSO concentration was lower than 1%. The reaction was started by adding the cofactor NADPH at […]. Samples were taken at time point 0 (immediately following the addition of the co-factor), 5, 10, 20, 30 and 60 minutes. The reaction was stopped by adding quench solution containing acetonitrile:methanol (1:1) (internal standard tolbutamide at 50 nM). The samples were centrifuged (3500 rpm/30 min.) to obtain the pellet of precipitated microsomal protein. The supernatant fractions were quantified by LC-MS/MS (liquid chromatography-tandem mass spectrometry) Prominence UFLC (Shimadzu Corporation, Kyoto, Japan) and interfaced with an LCMS-8045 triple quadrupole mass spectrometer (Shimadzu Corporation, Kyoto, Japan) with an electrospray ionization source (ESI). The peak area ratios (analyte/internal standard) were converted to the % remaining using the area ratio at time 0 as 100%. The half-life (t1/2 = ln(2)/k) in minutes and intrinsic clearance (Clint = k x 1000/(0.25)) in μL/min/mg were calculated using a nonlinear regression from the % remaining versus the incubation time. From this plot, the slope (k) was determined. The chromatogram for analysis was obtained on a Supelco Ascentis express C18 column (3 cm x 2.1 mm, 5 μM). The mobile phases consisted of water + 0.1% formic acid (A) and acetonitrile + 0.1% formic acid (B). The mobile phase was eluted in binary gradient mode, and the gradient was as follows: 0 min, 95% A; 0.05 mins. 95% A; 0.3 mins: 2% A; 0.7 mins: 2% A; 0.8 mins: 95% A; 1.15 mins 95% A; and 2.0 mins 95% A. The run time was 2 minutes, the sample injection volume was 10 μL, and the flow rate was 0.7 mL/min.

[4] = system: L. infantum; experiment: Screening of natural product collection against L. infantum (cell infection assay); assay type: cell-based; conditions: Leishmania infantum; compound concentration of 50 μM
Experimental: as §1

[5] = CD1, mouse, read-out: Mouse liver microsome (MsLM) CLint(mic)
[6] = human, read-out: Human liver microsome (HLM) CLint(mic)

With `C=C1[C@@H](C)[C@H]2[C@H](Cc3ccccc3)NC(=O)[C@]23OC(=O)/C=C/C(=O)CCC[C@@H](C)C/C=C/[C@H]3[C@@H]1O` [Cytochalasin A] the inhibition at 50 µM [1] was 99.7%, the Papp [2] was 27.1 ± 2.37 ×10⁻⁶ cm/s and the microsomal CLint [3, 5] was 167 ± 9.12 µL/min/mg. It also gave a microsomal CLint [3, 6] of 7.86 ± 2.05 µL/min/mg and an inhibition at 50 µM [4] of 100%.

With `C=C1[C@@H](C)[C@H]2[C@H](Cc3ccccc3)NC(=O)[C@]23OC(=O)/C=C/[C@H](O)CCC[C@@H](C)C/C=C/[C@H]3[C@@H]1O` [Cytochalasin B] the inhibition at 50 µM [1] was 79.4%, the Papp [2] was 15.8 ± 0.31 ×10⁻⁶ cm/s and the microsomal CLint [3, 5] was 62.9 µL/min/mg. The microsomal CLint [3, 6] was 217 ± 6.05 µL/min/mg and the inhibition at 50 µM [4] was 57.7%.

Compound `CC(=O)OC1C=CC(C)(O)C(=O)C(C)CC=CC2C(O)C(C)=C(C)C3C(Cc4ccccc4)NC(=O)C123` (stereo not drawn) [Cytochalasin C] has an inhibition at 50 µM [1] of 72.8%, a Papp [2] of 14.8 ± 3.28 ×10⁻⁶ cm/s and a microsomal CLint [3, 6] of 144 ± 15.8 µL/min/mg. For the same compound, the inhibition at 50 µM [4] was 58.5%.

Compound `C=C1[C@@H](C)[C@H]2[C@H](Cc3ccccc3)NC(=O)[C@]23[C@H](OC(C)=O)/C=C/[C@@](C)(O)C(=O)[C@@H](C)C/C=C/[C@H]3[C@@H]1O` [Cytochalasin D] has an inhibition at 50 µM [1] of 69.5%, a Papp [2] of 8.74 ± 0.64 ×10⁻⁶ cm/s and a microsomal CLint [3, 5] of 163 ± 22.4 µL/min/mg. It also gave an inhibition at 50 µM [4] of 64.9%.

From publication PMC9529094, “Identification of natural cytochalasins as leads for neglected tropical diseases drug discovery” (PLoS ONE, 2022)
